{"source": "patent US20240058390A1", "about": "“WNT+ ADIPOCYTES, EXOSOMES FROM WNT+ ADIPOCYTES, AND METHODS OF MAKING AND USING THEM” (The Administrators of the Tulane Educational Fund, priority 2020, published 2024)", "molecules": {"B1": {"name": "DKK1: canonical Wnt receptor antagonist (R&D Systems 5897-DK-010) (protein, UniProt O94907 32-266, looked up)", "Dickkopf-related protein 1": "TLNSVLNSNAIKNLPPPLGGAAGHPGSAVSAAPGILYPGGNKYQTIDNYQPYPCAEDEECGTDEYCASPTRGGDAGVQICLACRKRRKRCMRHAMCCPGNYCKNGICVSSDQNHFRGEIEETITESFGNDHSTLDGYSRRTTLSSKMYHTKGQEGSVCLRSSDCASGLCCARHFWSKICKPVLKEGQVCTKHRRKGSHGLEIFQRCYCGEGLSCRIQKDHHQASNSSRLHTCQRH"}}, "key": {"Wnt^+ adipocytes in iWAT": {"test_system": "Wnt^+ adipocytes in iWAT", "assay": "β3-adrenoceptor agonist treatment of T/L-GFP mice, beiging in iWAT", "format": "in vivo, mouse", "conditions": "1 mg/kg i.p. daily for 4 days", "method": "(§1) For cold-exposure experiments, mice were singly caged and exposed to cold temperature at 6° C. for 2, 4, or 14 consecutive days. For β3-adrenoceptor agonist treatment, adult male mice were injected intraperitoneally with CL316,243 (CAS No. 138908-40-4, product C5976, Sigma-Aldrich Inc., St. Louis, MO) at 1 mg/kg body weight daily for 4 consecutive days prior to sample collection. Age-matched male littermates were treated intraperitoneally with saline as vehicle controls. […]\n(§2) Adipose tissue was fixed in 4% PFA at 4° C. overnight, followed by dehydration through serial ethanol. […] After washing, sections were processed with a Vector TrueVIEW™ Autofluorescence Quenching Kit treatment (Vector Laboratories, Inc, Burlingame, CA, SP-8400) for 5 min to remove unspecific fluorescence on sections due to red blood cells and structural elements such as collagen and elastin. […] Images of tissue samples were captured using a Nikon confocal Microscope A1 HD25 (Nikon Instruments Inc., Melville, NY) and analyzed using ImageJ software (Version 1.51S). For quantification of Wnt^+ adipocytes, we randomly chose 12-18 images from each tissue of one mouse. Microscopic pictures (10× objective) were taken, and the total cell number and the number of GFP^+ adipocytes within each image were counted."}, "Wnt/β-catenin signaling": {"test_system": "Wnt/β-catenin signaling", "assay": "Wnt/β-catenin signaling activity (TCF/Lef:H2B-GFP reporter) in SVF precursors under pro-adipogenic conditions", "format": "cell-based, mouse", "conditions": "DKK1 100 ng/ml, IWP-2 5 μM, LF3 10 and 20 μM", "method": "(§3) Immortalized cell lines, isolated adipose SVF cells, MEFs, and BMSCs were seeded into plates at the density of 4×10^3 cells/cm^2 (cell line and SVF) or 1.5×10^4 cells/cm2 (BMSCs) in MesenCult™ Expansion medium (Stemcell Technologies Inc., Cambridge, MA, catalog no. 05513), and treated with MesenCult™ Adipogenic Differentiation cocktail (Stemcell, catalog no. 05507) with 90% cell confluence. Cells were cultured for various days after pro-adipogenic induction prior to being harvested for following experiments. Adipogenesis was examined by lipid staining. Briefly, differentiated adipocytes were washed twice with PBS, fixed in 4% paraformaldehyde (PFA) for 15 min, and then stained with Oil Red O solution (Sigma-Aldrich, catalog no. 01391) for 20 min at ambient temperature or with 20 nM BODIPY (dipyrrometheneboron difluoride, catalog no. D3835, Thermo Fisher Scientific) in PBS for 15 min at 37° C. Subsequently, cells were washed with PBS before imaging.\n(§4) For inhibition studies, SVF cells or precursor cell lines, 3 days after pro-adipogenic induction, were treated with each of the following molecules for 4 days: DKK1 (product 5897-DK-010, R&D Systems, Minneapolis, MN) (100 ng/ml), IWP-2 (catalog no. 72122, Stemcell), (5 μM), LF3 (catalog no. 58474, Selleck Chemicals) (10 and 20 μM, or 50 μM on cell lines), and LY294002 (catalog no. S1105, Selleck Chemicals) (2 and 14 μM), along with vehicles (PBS or DMSO)."}, "[1]": {"test_system": "Wnt^+ adipocytes in iWAT of T/L-DTA mice", "assay": "Tamoxifen-induced ablation of Wnt+ adipocytes in T/L-DTA mice", "format": "in vivo, mouse", "conditions": "150 mg/kg i.p., 2 days", "method": "To ablate Wnt^+ adipocytes in vivo, Fabp4-Flex-DTA mice were crossed with Tcf/Lef-CreERT2 mice to generate Tcf/Lef-CreERT2;Fabp4-Flex-DTA mice (“T/L-DTA” mice), which received 2-day tamoxifen administration via intraperitoneal injection at the dose of 150 mg/kg body weight. […] Forty-eight hours later, T/L-DTA mice and tamoxifen-treated littermate controls (Fabp4-Flex-DTA mice) were housed at 6° C. for 2 days, respectively."}, "[2]": {"test_system": "Wnt^+ adipocytes induced from GFPpos-1 and GFPpos-2 cell lines", "assay": "Treatment of induced Wnt+ adipocytes from GFPpos-1 and GFPpos-2 cell lines (GFP signal, cell death)", "format": "cell-based, mouse", "source_text": "(§5) SVFs of iBAT from adult TCF/Lef:H2B-GFP male mice were separated and collected as described above. Cells at passage 1 were transduced with pUltra-hot-LT LV particles. Two days after transduction, cells were purified by performing FACS to remove mCherry- and Lin+ cells Immortalized cells were subjected to clonal selection through serial limited dilutions. The expression of GFP in cell colonies under pro-adipogenic induction was used as a readout for the accurate establishment of Wnt+ (>95%) and Wnt− (Wnt+=0%) adipocyte cell lines, respectively.\nas §3, §4"}, "[3]": {"test_system": "uninduced Wnt^+ and Wnt^− precursor cell lines", "assay": "Treatment of uninduced Wnt+ and Wnt− precursor cell lines", "format": "cell-based, mouse", "conditions": "same dose of LF3", "source_text": "as §5\n[…] S1105, Selleck Chemicals) (2 and 14 μM), along with vehicles (PBS or DMSO)."}, "[4]": {"test_system": "Wnt^− adipocytes induced from GFPneg precursor cell lines", "assay": "Treatment of induced Wnt− adipocytes from GFPneg precursor cell lines (viability, maturation)", "format": "cell-based, mouse", "source_text": "as §5, §3, §4"}, "iBAT-derived SVF cells": {"test_system": "iBAT-derived SVF cells", "assay": "Adipogenic maturation of SVF-derived adipocytes (Oil Red O staining)", "format": "cell-based, mouse", "conditions": "LF3, dose-dependent", "method": "as §3, with “imaging. […]” for “imaging.”"}, "[5]": {"test_system": "Wnt^+ adipocytes in iWAT and iBAT", "assay": "mTOR antagonist treatment of T/L-GFP mice, quantification of Wnt+ adipocytes", "format": "in vivo, mouse", "conditions": "T/L-GFP adult mice, 600 μg/kg i.p. daily for 5 days, vs vehicle", "method": "as §1, §2"}}, "note": "“Also recorded” adds a separate entry of the source."}
{"molecule": "C[C@H](Cc1ccc2c(c1)OC(C(=O)[O-])(C(=O)[O-])O2)NC[C@H](O)c1cccc(Cl)c1.[Na+].[Na+]", "note": "[CL316,243]", "values": [{"measurement": "proportion of Wnt+ adipocytes in iWAT", "setting": "Wnt^+ adipocytes in iWAT", "result": "unaltered"}]}
{"molecule": "Cc1ccc2nc(NC(=O)CSc3nc4c(c(=O)n3-c3ccccc3)SCC4)sc2c1", "note": "[1WP-2, IWP-2]", "values": [{"measurement": "inhibition of Wnt/β-catenin signaling activity", "setting": "Wnt/β-catenin signaling", "result": "failed to"}]}
{"molecule": "CC/C(=C(\\c1ccccc1)c1ccc(OCCN(C)C)cc1)c1ccccc1", "note": "[tamoxifen]", "values": [{"measurement": "ablation of Wnt+ adipocytes in iWAT", "setting": "[1]", "result": "about 87%"}]}
{"molecule": "LF3", "values": [{"measurement": "GFP expression in induced Wnt+ adipocytes", "setting": "[2]; 50 μM LF3, first day", "result": "quenched GFP expression; also recorded: GFP signals are significantly quenched"}, {"measurement": "cell number of induced Wnt+ adipocytes", "setting": "[2]; 50 μM LF3, one day", "result": "obviously reduced cell numbers"}, {"measurement": "cell death of induced Wnt+ adipocytes", "setting": "[2]; 50 μM LF3, second day", "result": "massive cell death; also recorded: Remarkable cell death"}, {"measurement": "impact on uninduced precursor cell lines", "setting": "[3]", "result": "showed no impacts"}, {"measurement": "cell viability of induced Wnt− adipocytes", "setting": "[4]; LF3", "result": "did not affect cell viability"}, {"measurement": "maturation of Wnt− adipocytes", "setting": "[4]; LF3", "result": "slowed down the maturation"}, {"measurement": "adipogenic capacity of LF3-treated Wnt− adipocytes after return to normal pro-adipogenic medium", "setting": "[4]; LF3, rescue experiment", "result": "resumed full adipogenic capacity"}, {"measurement": "inhibition of Wnt/β-catenin signaling activity", "setting": "Wnt/β-catenin signaling", "result": "did inhibit"}, {"measurement": "adipogenic maturation of SVF-derived adipocytes", "setting": "iBAT-derived SVF cells", "result": "impaired/delayed adipogenic maturation"}]}
{"molecule": "CO[C@H]1C[C@@H]2CC[C@@H](C)[C@@](O)(O2)C(=O)C(=O)N2CCCC[C@H]2C(=O)O[C@H]([C@H](C)C[C@@H]2CC[C@@H](OC(=O)C(C)(CO)CO)[C@H](OC)C2)CC(=O)[C@H](C)/C=C(\\C)[C@@H](O)[C@@H](OC)C(=O)[C@H](C)C[C@H](C)/C=C/C=C/C=C/1C", "note": "[temsirolimus, Temsirolimus]", "values": [{"measurement": "Wnt+ adipocyte numbers in iBAT", "setting": "[5]", "result": "dramatically reduced Wnt^+ adipocyte numbers"}, {"measurement": "Wnt+ adipocyte numbers in iWAT", "setting": "[5]", "result": "dramatically reduced Wnt^+ adipocyte numbers"}]}
{"molecule": "B1", "values": [{"measurement": "inhibition of Wnt/β-catenin signaling activity", "setting": "Wnt/β-catenin signaling", "result": "failed to"}]}
